Experimental findings from patent US20190388360A1, “PHARMACEUTICAL PATCH COMPRISING LIDOCAINE AND DICLOFENAC FOR TREATING NEUROPATHIC PAIN” (TEIKOKU SEIYAKU CO., LTD., priority 2017, published 2019) are described below.

In one assay the test system is CFA-hindpaw inflammation. The assay can be described thus: CFA-hindpaw inflammation, paw pressure test (CFA-PPT), intraperitoneal injection. The settings on record: ip; Lidocaine dose range 10 mg/kg to 46.4 mg/kg, Diclofenac dose range 21.5 mg/kg to 100 mg/kg. It counts as in vivo, rat. As for the experimental part: An interaction study was performed as a single dose study in the CFA-hindpaw inflammation, paw pressure test.
In comparative example 1 and inventive examples 1 to 4 described below, a compound or combination of compounds was administered by intraperitoneal injection (FIGS. 1 to 9).
The pain was measured by pressing a pointer on the inflamed paw. The pointer exerts a force, increasing at a constant rate, monitored by a linear scale. Pain is deemed to be perceived one the rat starts to withdraw the paw. This value (withdrawal threshold in gram) is the pressure at which the animal feels pain (cut-off 450 g). Efficacy of the test compounds is expressed as a percent change of withdrawal threshold after compound administration to the pre-value (withdrawal threshold before compound administration).

Assay [1] deals with CFA-induced paw edema / mechanical-hyperalgesia. The assay can be described thus: CFA-hindpaw inflammation, paw pressure test (CFA-PPT), topical application to the paw as ointment or solution. Type of assay: in vivo, male albino rats. The settings on record: Lidocaine 30 mg/ml to 60 mg/ml, Diclofenac 40 mg/ml to 80 mg/ml. As for the experimental part: In comparative example 2 and inventive examples 5 to 8 as described below, a compound or combination of compounds was administered topically to the paw by means of an ointment or solution (FIGS. 10 to 18).
The efficacy was tested when a compound or a compositions of compounds was administered topically as an ointment or a solution. The study was performed on male albino rats (150-180 g body weight) to which an edema of paw was induced by injection of Complete Freunds Adjuvant (CFA). CFA is a composition of inactivated and dried Myobacteria tuberculoses, emulsified in mineral oil which is used as an immunopotentiator causing a painful reaction that lasts 7-8 days after subcutaneous injection.
The studies of comparative example 2 and inventive examples 5 to 8 were performed according to the following procedure: 50 μL of CFA were injected sub plantar into the right hind paw, inducing mechanical-hyperalgesia after 24 hours. […]
The pain was measured by pressing a pointer on the inflamed paw. The pointer exerts a force, increasing at a constant rate, monitored by a linear scale. […] Efficacy of the test compounds is expressed as a percent change of withdrawal threshold after compound administration to the pre-value (withdrawal threshold before compound administration).

Consider `CCN(CC)CC(=O)Nc1c(C)cccc1C` [Lidocaine, 2-(diethylamino)-N-(2,6-dimethylphenyl)acetamide], for which the “efficacy when administered alone” value with CFA-hindpaw inflammation was “dose dependent efficacy”. In addition, the “efficacy when topically administered alone” value in assay [1] was “dose dependent efficacy”.

In the case of `O=C(O)Cc1ccccc1Nc1c(Cl)cccc1Cl` [Diclofenac, 2-(2,6-dichloranilino) phenylacetic acid], in the assay on CFA-hindpaw inflammation, the “efficacy when administered alone” value is “dose dependent efficacy”. For the same molecule, the “efficacy when topically administered alone” value in assay [1] was “dose dependent efficacy”.
